Measurements as given in US10920265B2, “Compounds and methods for detection of enzymes that remove methyl succinyl groups from epsilon-amino lysine moieties” (Enzo Life Sciences, Inc., priority 2011, dated 2021).
*: point of attachment. AMC = Cc1cc(=O)oc2cc(N*)ccc12

Legend:
SIRT1 = biological target: T1, SIRT1 (Homo sapiens, UniProt Q96EB6); assay: Sirtuin activity with fluorogenic lysyl substrates; format: biochemical; conditions: 50 μM substrate, 500 μM NAD^+
T1 construct: purchased ENZO Life Sciences BML-SE239
T1 sequence (Q96EB6 1-747): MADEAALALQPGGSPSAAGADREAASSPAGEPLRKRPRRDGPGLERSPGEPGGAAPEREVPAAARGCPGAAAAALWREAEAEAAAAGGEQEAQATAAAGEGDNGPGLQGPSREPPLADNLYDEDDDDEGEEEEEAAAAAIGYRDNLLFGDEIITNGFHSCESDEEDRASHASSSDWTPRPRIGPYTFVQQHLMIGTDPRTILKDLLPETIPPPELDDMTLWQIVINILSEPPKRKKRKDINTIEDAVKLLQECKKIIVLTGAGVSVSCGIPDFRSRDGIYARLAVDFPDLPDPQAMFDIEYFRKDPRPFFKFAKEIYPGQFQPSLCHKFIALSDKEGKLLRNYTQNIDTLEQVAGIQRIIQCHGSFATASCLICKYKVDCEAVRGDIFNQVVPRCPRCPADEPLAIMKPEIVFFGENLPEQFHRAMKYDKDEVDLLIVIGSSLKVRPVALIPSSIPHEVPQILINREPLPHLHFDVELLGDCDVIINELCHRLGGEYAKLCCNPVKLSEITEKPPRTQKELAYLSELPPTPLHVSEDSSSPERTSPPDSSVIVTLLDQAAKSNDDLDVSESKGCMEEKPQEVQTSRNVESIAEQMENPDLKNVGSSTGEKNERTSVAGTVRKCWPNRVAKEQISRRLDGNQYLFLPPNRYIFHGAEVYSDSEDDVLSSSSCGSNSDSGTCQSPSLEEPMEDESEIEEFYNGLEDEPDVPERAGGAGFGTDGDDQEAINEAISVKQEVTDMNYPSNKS
Description: (§1) The Ac-Lys(Succ.)-AMC substrate was tested for activity with recombinant preparations of human HDACs 1-11, SIRTs 1-4, 6 and 7, a complex of HDAC3 with a fragment of the activating protein NCOR1 and with HeLa nuclear extract, a rich source of active HDACs in their native multiprotein complexes.
(§2) Enzyme and extract catalog products obtained from ENZO Life Sciences included: HDAC1 (Cat. # BML-SE456), HDAC2 (Cat. # BML-SE500), HDAC3 (Cat. # BML-SE507), HDAC3/NCOR1 Complex (Cat. # BML-SE515), HDAC6 (Cat. # BML-SE508), HDAC8 (Cat. # BML-SE145), HDAC10 (Cat. # BML-SE559), HDAC11 (Cat. # BML-SE560), SIRT1 (Cat. # BML-SE239), SIRT2 (Cat. # BML-SE251), SIRT3 (Cat. # BML-SE270), SIRT5 (Cat. # BML-SE555), HeLa Nuclear Extract (Cat. # BML-KI140), Trypsin (“Fluor de Lys Developer”, 80 mg/ml bovine trypsin in 1 mM HCl, Cat. # BML-KI105 or “Fluor de Lys Developer II”, 80 mg/ml bovine trypsin in 1 mM HCl, Cat. # BML-KI176). […] Enzymes obtained from BPS Bioscience, San Diego, Calif. included: human recombinants SIRT4 (Cat. #50015), SIRT6 (Cat. #50017), SIRT7 (Cat. #50018). HeLa whole cell extract was obtained from HeLa S3 cells (American Type Culture Collection) grown in a medium of MEM/10% fetal bovine serum (FBS) as follows: 1) 9×10^6 cells were suspended by trypsinization, followed by a phosphate buffered saline (PBS) rinse and addition of MEM/10% FBS (1.5 mL) to eliminate trypsin before transfer to a 15 mL conical tube; 2) cells were sedimented by a low speed centrifugation, gently resuspended in PBS and sedimented again and supernatant removed; 3) lysis was induced by resuspension in 0.8 mL 50 mM Tris/HCl, pH 8.0 with the non-denaturing detergent NP-40 (0.5%), placement on ice and brief vortexing every 5 min. for 30 min.; 4) 100 μl of a concentrated salt solution in the same buffer was added in order to bring the final buffer composition to 50 mM Tris/C1, pH 8.0, 137 mM NaCl, 2.7 mM KCl, 1 mM MgCl2, 0.5% NP-40; 5) particulate matter was cleared by centrifugation and the cleared lysate supernatant transferred to a 1.5 mL Eppendorf tube and stored on ice until use in activity assays.
(§3) Assays were performed at 37° C., according to the manufacturer's instructions for the “SIRT1 Fluorometric Drug Discovery Kit” from Enzo Life Sciences (ELS) (Cat. # BML-AK555), with exceptions described as follows. Where indicated in figures and text, SIRT1 enzyme was replaced with another enzyme or extract and the “Fluor de Lys-SIRT1 Substrate” (Ac-Arg-His-Lys-Lys(Ac)-AMC; ELS Cat. # BML-KI-177) was replaced with another acetylated, succinylated or trifluoroacetylated substrate.

SIRT3 = biological target: T2, SIRT3 (Homo sapiens, UniProt Q9NTG7); assay: Sirtuin activity with fluorogenic lysyl substrates; format: biochemical; conditions: 50 μM substrate, 500 μM NAD^+
T2 construct: purchased ENZO Life Sciences BML-SE270
T2 sequence (Q9NTG7 1-399): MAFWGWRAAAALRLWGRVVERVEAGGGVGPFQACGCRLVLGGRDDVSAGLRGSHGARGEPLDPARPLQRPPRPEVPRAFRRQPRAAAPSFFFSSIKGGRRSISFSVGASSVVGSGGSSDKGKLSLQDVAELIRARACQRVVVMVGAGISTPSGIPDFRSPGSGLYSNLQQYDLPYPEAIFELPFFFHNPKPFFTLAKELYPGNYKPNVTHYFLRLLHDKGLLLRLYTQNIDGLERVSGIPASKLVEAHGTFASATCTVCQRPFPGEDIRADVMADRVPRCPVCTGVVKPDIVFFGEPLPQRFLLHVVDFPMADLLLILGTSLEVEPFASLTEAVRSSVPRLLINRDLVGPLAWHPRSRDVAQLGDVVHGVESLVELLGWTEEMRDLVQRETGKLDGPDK
Description: as §1, §2, §3

HeLa Nuclear Extract = assay: Activity of HeLa nuclear extract with fluorogenic lysyl substrates; format: biochemical, human; conditions: 50 μM substrate
Description: as §1, §2, §3

SIRT6 = biological target: T3, SIRT6 (Homo sapiens, UniProt Q8N6T7); assay: Sirtuin activity with fluorogenic lysyl substrates; format: biochemical; conditions: 50 μM substrate, 500 μM NAD^+
T3 construct: purchased BPS Bioscience 50017
Description: as §1, §2, §3

T3 sequence (Q8N6T7 whole entry): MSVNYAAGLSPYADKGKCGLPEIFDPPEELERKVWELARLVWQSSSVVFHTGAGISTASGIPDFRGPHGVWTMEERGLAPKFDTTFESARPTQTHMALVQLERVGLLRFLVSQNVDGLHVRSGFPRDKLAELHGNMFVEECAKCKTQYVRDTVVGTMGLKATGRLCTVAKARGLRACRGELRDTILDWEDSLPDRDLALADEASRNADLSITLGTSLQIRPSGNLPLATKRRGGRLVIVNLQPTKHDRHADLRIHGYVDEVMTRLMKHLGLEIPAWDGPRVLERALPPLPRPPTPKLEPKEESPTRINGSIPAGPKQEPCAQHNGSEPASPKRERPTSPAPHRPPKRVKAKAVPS

Row | Molecule | Activity (SIRT1) | Activity (SIRT3) | Activity (HeLa Nuclear Extract) | Activity (pmol/min/μg) (SIRT1) | Activity (pmol/min/μg) (SIRT3) | Activity (pmol/min/μg) (SIRT6) | Activity (SIRT6)
1 | CC(=O)NCCCCC(NC(C)=O)C(=O)Nc1ccc2c(C)cc(=O)oc2c1 (centres unmarked) [Ac-Lys(Ac.)-AMC, Ac-Lys(ε-acetyl)-AMC, reference compound] | 0.391 pmol/min/µg | 0.125 pmol/min/µg | 31 pmol/min/µg | – | – | – | –
2 | CC(=O)N[C@@H](CCCCNC(=O)CCC(=O)O)C(=O)Nc1ccc2c(C)cc(=O)oc2c1 [Compound 1, N—(N^α-acetyl-L-Lysine(N^ε-succinyl))-AMC] | – | – | 0.012 pmol/min/µg | Undetectable | Undetectable | Undetectable | –
3 | CCCCCCCCCCCCCC(=O)NCCCC[C@H](NC(C)=O)C(=O)Nc1ccc2c(C)cc(=O)oc2c1 [Compound 4, N—(N^α-acetyl-L-Lysine(N^ε-myristoyl))-AMC] | 0.043 pmol/min/µg | 0.012 pmol/min/µg | 0.819 pmol/min/µg | – | – | – | 0.074 pmol/min/µg
4 | COC(=O)CCC(=O)NCCCC[C@H](NC(C)=O)C(=O)Nc1ccc2c(C)cc(=O)oc2c1 [Compound 5, N—(N^α-acetyl-L-Lysine(N^ε-methyl succinyl))-AMC] | 0.002 pmol/min/µg | 0.002 pmol/min/µg | 1.764 pmol/min/µg | – | – | – | 0.006 pmol/min/µg
5 | Ac-Arg-His-Lys-Lys(ε-acetyl)-AMC (Ac-RHKK(Ac)-{AMC}; SMILES CC(=O)NCCCC[C@H](NC(=O)[C@H](CCCCN)NC(=O)[C@H](Cc1c[nH]cn1)NC(=O)[C@H](CCCNC(=N)N)NC(C)=O)C(=O)Nc1ccc2c(C)cc(=O)oc2c1) [Ac-RHKK(Ac)-AMC, p53 peptide fluorogenic deacetylase substrate, Cat. # BML-KI177, reference compound] | – | – | – | Ac-RHKK(Ac)-AMC/64 pmol/min/μg | – | Ac-RHKK(Ac)-AMC/0.052 pmol/min/μg | –
